Data: PubChem BioAssay AID1228 (The Scripps Research Institute Molecular Screening Center, 2008)
The source made the active and inactive calls.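 The calls were made as follows: active = EC50 at or below 10 µM; inactive = EC50 above 10 µM.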

Each molecule was assayed on CHO NFAT-BLA reporter, FRET beta-lactamase activation counterscreen (assay: nonspecific beta-lactamase reporter activation – CHO NFAT-bla cells, FRET readout, counter-screen for GALR2 agonist project, dose response (AID 1228)).

Row | SMILES | EC50
1 | Cc1ccc2nsnc2c1NC(=O)c1ccc(-c2cc(Cl)ccc2Cl)o1 | > 55.7 µM (inactive)
2 | C=CCNC(=O)/C(C#N)=C/c1cn(-c2ccccc2)nc1-c1cccs1 | > 55.7 µM (inactive)
3 | Cc1cc(C)c2nc(NNC(=O)c3ccc(S(=O)(=O)N4CCCC(C)C4)cc3)sc2c1 (stereo unspecified) | > 55.7 µM (inactive)
4 | Cc1c2ccncc2c(C)c2c1[nH]c1ccccc12 | > 55.7 µM (inactive)
5 | CCOc1ccc(Br)cc1C(=O)Nc1ccc(C(=O)NCC(C)C)cc1 | > 55.7 µM (inactive)
6 | CC1=C/C(=N\OS(=O)(=O)c2ccccc2)C(C(C)C)=CC1=O | > 55.7 µM (inactive)
7 | Cc1cccc2sc(NNC(=O)c3ccc(S(=O)(=O)N4CCCC(C)C4)cc3)nc12 (stereo unspecified) | > 55.7 µM (inactive)
8 | COc1cc2c3cc1Oc1cc(ccc1O)C[C@@H]1c4c(cc(OC)c(O)c4Oc4ccc(cc4)C[C@H]3N(C)CC2)CCN1C | > 55.7 µM (inactive)
9 | CCCOc1ccc(C(=O)C(CCC(CNCC)C(=O)c2ccc(OCCC)cc2)CNCC)cc1 (stereo unspecified) | > 55.7 µM (inactive)
10 | Cc1cc(C)c2nc(NNC(=O)c3ccc(S(=O)(=O)N4CC(C)CC(C)C4)cc3)sc2c1 (stereo unspecified) | > 55.7 µM (inactive)
11 | Cc1cccc2sc(NNC(=O)c3ccc(S(=O)(=O)N4CC(C)CC(C)C4)cc3)nc12 (stereo unspecified) | > 55.7 µM (inactive)
